Entries after “also recorded” stand apart in the source; their conditions may differ.
Columns and labels:
[1] = target: T1, hNaV1.6-N1768D (Homo sapiens, UniProt Q9UQD0, N1768D); assay: Persistent INa expressed by DEE mutant channel, patch clamp; format: cell-based; details: hNaV1.6-N1768D DEE mutant
T1 construct: expressed in transfected cells

[2] = target: T2, hNaV1.6 (Homo sapiens, UniProt Q9UQD0); assay: Steady-state inactivation and activation curves (V1/2 shift); format: cell-based; details: for shift in V1/2 of activation curve: DMSO control −1.3 mV
T2 construct: stably expressing either human NaV1.6 (NP_055006); expressed in transfected cells

[3] = test system: male CD-1 mice; assay: Maximal electroshock induced seizure (MES) test; format: in vivo, mouse
Method: Food and water were available ad libitum.
VPA was prepared in saline (Vehicle 1). All solutions were protected from light. All compounds and vehicles were dosed at 10 ml/kg.
The MES test was carried out over two days with 6 of 12 mice from each treatment group being tested on each day. Mice were brought to the test room at least one hour before the start of the experiment.
A Grass S88x (Grass Technologies of Astro-Med, Inc., West Warwick, RI) Stimulus Isolation Unit (A385, WPI Inc., USA) was set to deliver a 50 mA square-wave stimulus, with a 0.8 second duration, a pulse width of 10 msec, and a frequency of 50 Hz. A pair of custom stainless steel electrodes were soaked in 0.2% Agar, and then the subject received bilateral transauricular stimulation through ear-clip electrodes. During the stimulation, mice were manually restrained. They were then released into the observation cage for convulsion observation for 60 seconds immediately after stimulation. Each mouse was observed continuously by individuals blinded to treatment conditions and results were recorded.
Anti-seizure assessment endpoints were: (1) latency of hindlimb tonic flexion; (2) latency of hindlimb tonic extension; (3) total #hindlimb tonic flexions; (4) total #hindlimb tonic extensions; (5) latency to death; and (6) mortality rate
From these fitted curves, ED50 and EC50 values were calculated.

[4] = test system: heterozygous Kcnq2 K556E mice; assay: Pentylenetetrazole (PTZ) induced seizure, Kcnq2 model; format: in vivo, mouse
Method: (§1) Pentylenetetrazole (PTZ), a GABA receptor antagonist, can be used to create a common, chemically-induced seizure model, a model of generalized seizure.
(§2) Mice were acclimated to experimental area for minimum 30 minutes before experimentation. All experiments were performed between 10:00 am and 12:30 pm. The treatment compounds and PTZ were always prepared fresh.
(§3) Mice were randomly assigned either to different doses of Compound 1 (10 mg/kg, 1 mg/kg, or 0.1 mg/kg) or a vehicle control containing 0.5% methylcellulose and 0.2% tween 80, and dosed via oral gavage (p.o). Compound 1 and the vehicle control were administered 60 minutes before the injection of PTZ.
(§4) PTZ (100 mg/kg) was dissolved in saline and administered subcutaneously (s.c) to the experimental mice. The latency to full tonic-clonic seizure with hind limb extension was measured. The animals were sacrificed either at the time of hind limb extension or 40 minutes after PTZ administration if no hind limb extension was recorded.
(§5) Data were analyzed using a Mantel-Cox log-rank test. Brain tissue and plasma were collected from some mice for each dose of Compound 1 at the PTZ endpoint for PK analysis.

[5] = test system: heterozygous Kcnc1 R320H mice; assay: Pentylenetetrazole (PTZ) induced seizure, Kcnc1 model; format: in vivo, mouse
Method: as §1, §2, §3, §4, §5

[6] = test system: Hcn1 DEE mouse model; assay: Pentylenetetrazole (PTZ) induced seizure, Hcn1 model; format: in vivo
Method: as §1, §2, §3, §4, §5

[7] = Phase 1 SAD/MAD/food effect trial: pharmacokinetics; format: in vivo, human
Method: (§6) This was a 3-part Phase 1 clinical trial in healthy participants aged 18-55 years. Parts A and B were randomized, placebo-controlled and evaluated the effects of single (2.5-150 mg) and multiple (30-120 mg, 14 days QD (every day)) ascending oral doses of Compound 1, respectively. Part C was an open-label, randomized, crossover design evaluating the PK of a single oral dose (90 mg) in fasted and fed states. In Parts A (n=64) and B (n=32), participants were randomized 3:1 to Compound 1 or placebo (n=8/cohort). In Part C (n=16), participants were randomized 1:1 to one of two treatment sequences receiving a single dose of 90 mg Compound 1 in the fed (following a high-fat/high calorie meal) or fasted (≥10 hours after the last, and 4 hours before the next, meal) state.

[8] = test system: healthy participants; assay: Phase 1 SAD/MAD trial: EEG pharmacodynamics (ASSR, qEEG); format: in vivo, human; details: for reduction from baseline in ASSR phase-locking factor (PLF): Day 14, 2 hours 35 minutes postdose
Method: as §6
In this clinical trial, the PD activity of Compound 1 was evaluated in healthy participants using electroencephalogram (EEG)-based auditory steady-state response (ASSR) measures and resting state EEG (qEEG)-based spectral power measures under eyes-open and eyes-closed conditions.

[9] = test system: healthy participants; assay: Phase 1 SAD/MAD/food effect trial: safety and tolerability; format: in vivo, human
Method: as §6

[10] = test system: healthy participants; assay: 2-part Phase 1 trial (28 days; OXC combination): safety and tolerability; format: in vivo, human
Source text: This was a 2-part randomized, placebo-controlled Phase 1 trial in healthy participants aged 18-55 years. […] PD effects were examined on quantitative EEG (qEEG; resting and vigilant conditions) and stimulated EEG using auditory steady state response (ASSR). A total of 48 participants were enrolled; Part A, n=30; Part B, n=18.

[11] = Compound 1 human pharmacokinetics as stated in trial rationale; format: in vivo; details: predicted from current knowledge of pharmacokinetics
[12] = test system: male CD-1 mice; assay: Spontaneous locomotor activity (sLMA) test
Method: Male CD-1 mice, 6-weeks old, were obtained from Vital River (Beijing, China). The average body weight was 25-35 g at the time the experiments were carried out. The mice were housed in groups of 3-5 under controlled conditions (temperature: 20-26° C.; humidity: 40-70%; air exchange rate: 10-15 cycles/hour; 12:12 light-dark cycle with lights on at 5:00 a.m.). Food and water were available ad libitum. The mice were acclimated to these conditions for 6 days before the start of the studies.
Dosing solutions were prepared on each experiment day. […] All solutions were protected from light. Samples from dosing solutions were stored at 4° C. Both compound and vehicle were dosed at 10 ml/kg.
The sLMA test was carried out over two days. 5 of 10 mice from each treatment group were tested on each day. All animals were marked on the tail with a permanent marker and weighed. Mice were randomly assigned into one of the four treatment groups. Animals were acclimated to the test room at least 30 minutes before the start of the experiment.
Possible side effects, such as overt sedation, were recorded just before the start of the sLMA test.
Each mouse was automatically tracked with overhead cameras using a 1-minute sampling window in an isolated chamber. Spontaneous locomotor activity was then analyzed offline using the Animal Behavior Video Tracking Analysis System (Ji Liang Software Technology Co., Ltd., Shanghai, China).
Locomotor status was defined as >2 mm of movement in every 200 ms (Frame-rate recorded was 20 frames/second. Locomotor status was identified in every 4 frame-to-frame interval. The accumulated shift of tracking spots that exceeded 2 mm in every 4 frame intervals was identified as a locomotor epoch). Traveling distance was calculated automatically from all the locomotion epochs and analyzed.
All mice were anesthetized with CO2. Then, terminal plasma and brain tissue samples were collected from animals in the drug treatment groups. 500 μL whole blood was collected via cardiac puncture and placed in tubes with 10 μL EDTAK2. The tubes were then placed in wet ice until centrifuged at 2000 g for 5 minutes at 4° C. The supernatant plasma was pipetted into Eppendorf tubes.
All statistical analyses were conducted using GraphPad Prism 7.0. Data are presented as mean±s.e.m., and p<0.05 was regarded as statistically significant.
Dose-response and concentration-response curves for plasma and brain were fitted for each end-point using GraphPad Prism. From these fitted curves, TD50 and TC50 values were calculated.

[13] = test system: hNaV1.1, hNaV1.2, hNaV1.5, rNaV1.2, dNaV1.2, mNaV1.6, rNaV1.6; assay: Persistent INa of other NaV isoforms and orthologs, patch clamp; details: read-out: persistent INa IC50 values across isoforms and orthologs
Source text: Persistent INa was activated from resting/closed channel conformations by maintaining a hyperpolarized holding potential (−120 mV).

[14] = 10 mg/kg p.o., 60 min before PTZ 100 mg/kg s.c.

T2 sequence (Q9UQD0 whole entry): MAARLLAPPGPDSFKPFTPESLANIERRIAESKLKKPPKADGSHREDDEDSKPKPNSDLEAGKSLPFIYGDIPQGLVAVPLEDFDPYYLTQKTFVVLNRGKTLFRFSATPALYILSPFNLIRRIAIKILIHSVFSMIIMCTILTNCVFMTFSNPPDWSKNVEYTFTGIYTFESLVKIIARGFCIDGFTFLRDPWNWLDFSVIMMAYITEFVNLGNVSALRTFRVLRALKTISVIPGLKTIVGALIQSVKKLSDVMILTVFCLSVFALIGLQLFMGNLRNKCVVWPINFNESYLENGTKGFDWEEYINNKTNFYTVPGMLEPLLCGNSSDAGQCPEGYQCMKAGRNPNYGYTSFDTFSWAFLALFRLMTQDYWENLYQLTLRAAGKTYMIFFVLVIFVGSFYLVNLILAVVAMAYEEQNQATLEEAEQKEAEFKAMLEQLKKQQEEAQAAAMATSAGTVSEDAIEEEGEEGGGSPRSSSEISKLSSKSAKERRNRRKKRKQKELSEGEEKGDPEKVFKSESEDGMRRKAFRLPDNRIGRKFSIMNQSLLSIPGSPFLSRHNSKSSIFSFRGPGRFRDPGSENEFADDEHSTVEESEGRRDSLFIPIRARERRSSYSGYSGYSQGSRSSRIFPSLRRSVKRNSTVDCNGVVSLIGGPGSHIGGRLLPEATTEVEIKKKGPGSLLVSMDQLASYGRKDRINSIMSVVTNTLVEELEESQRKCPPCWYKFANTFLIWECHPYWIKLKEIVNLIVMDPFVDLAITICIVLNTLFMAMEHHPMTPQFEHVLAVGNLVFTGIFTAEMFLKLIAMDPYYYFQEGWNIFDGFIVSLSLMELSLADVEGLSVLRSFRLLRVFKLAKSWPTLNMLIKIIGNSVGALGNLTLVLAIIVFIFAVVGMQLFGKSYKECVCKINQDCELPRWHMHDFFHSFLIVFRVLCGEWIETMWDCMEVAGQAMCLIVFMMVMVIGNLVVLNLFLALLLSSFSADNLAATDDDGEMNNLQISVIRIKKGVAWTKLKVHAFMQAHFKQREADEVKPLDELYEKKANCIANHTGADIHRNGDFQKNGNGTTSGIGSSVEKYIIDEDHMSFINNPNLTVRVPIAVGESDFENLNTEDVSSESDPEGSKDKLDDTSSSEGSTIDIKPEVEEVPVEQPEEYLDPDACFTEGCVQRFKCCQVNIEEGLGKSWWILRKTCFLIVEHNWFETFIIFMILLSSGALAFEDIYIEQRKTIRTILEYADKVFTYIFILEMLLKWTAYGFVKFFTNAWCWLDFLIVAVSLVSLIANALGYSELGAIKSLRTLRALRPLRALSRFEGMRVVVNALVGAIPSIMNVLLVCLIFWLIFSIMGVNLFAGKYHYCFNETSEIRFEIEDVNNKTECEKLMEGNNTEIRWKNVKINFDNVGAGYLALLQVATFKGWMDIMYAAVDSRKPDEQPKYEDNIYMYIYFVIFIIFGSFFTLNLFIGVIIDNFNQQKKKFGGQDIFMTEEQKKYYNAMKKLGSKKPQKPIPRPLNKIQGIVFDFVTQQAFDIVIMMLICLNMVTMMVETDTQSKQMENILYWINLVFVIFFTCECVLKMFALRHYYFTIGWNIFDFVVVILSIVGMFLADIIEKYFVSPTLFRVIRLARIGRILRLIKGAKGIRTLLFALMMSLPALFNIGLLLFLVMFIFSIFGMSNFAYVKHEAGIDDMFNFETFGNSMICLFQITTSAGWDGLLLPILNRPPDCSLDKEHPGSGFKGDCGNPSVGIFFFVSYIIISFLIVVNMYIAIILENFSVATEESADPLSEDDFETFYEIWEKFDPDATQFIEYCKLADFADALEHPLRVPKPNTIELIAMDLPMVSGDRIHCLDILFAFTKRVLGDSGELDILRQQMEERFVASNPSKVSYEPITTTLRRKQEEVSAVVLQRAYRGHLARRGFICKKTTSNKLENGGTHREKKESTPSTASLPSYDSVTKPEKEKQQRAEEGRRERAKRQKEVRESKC
T1 sequence (Q9UQD0 whole entry N1768D): as the sequence (Q9UQD0 whole entry) above, with N1768D counted along it

CCOC(F)(F)c1nnc2cnc(-c3cnc(OCC(F)(F)F)c(F)c3)cn12 [Compound 1, 3-(ethoxydifluoromethyl)-6-(5-fluoro-6-(2,2,2-trifluoroethoxy)pyridin-3-yl)-[1,2,4]triazolo[4,3-a]pyrazine]
IC50 [1]: 75 nM
shift in V1/2 of activation curve ([2]; 0.3 μmol/L): −2.3 mV
shift in V1/2 of activation curve ([2]; 1 μmol/L): −2.7 mV
shift in V1/2 of steady-state inactivation curve ([2]; 1 μmol/L, DMSO control −2.6 mV): −11.7 mV
latency to seizures following bilateral transauricular stimulation ([3]; 3 mg/kg p.o., 30 min before test): significantly increased
mice that did not exhibit tonic seizures ([3]; Compound 1 10 mg/kg): 11 of 12
protection (increase in latency) against MES-induced tonic hindlimb seizures, dose-response ([3]; Compound 1 0.3-10 mg/kg po): dose-dependent increases in latency; also recorded: dose-dependent protection
ED50 ([3]; mouse MES, read-out: Efficacy (MES) ED50, increasing latency to tonic extension seizures): 2 mg/kg
efficacy in KCNQ2 K556E PTZ seizure model [4, 14]: highly efficacious
protection from hindlimb extension (FIG. 14C) ([4]; Kcnq2 DEE mouse model, PTZ): robust anticonvulsant activity
efficacy in KCNC1 R320H PTZ seizure model [5, 14]: highly efficacious
protection from hindlimb extension (FIG. 14D) ([5]; Kcnc1 DEE mouse model, PTZ): robust anticonvulsant activity
protection from hindlimb extension (FIG. 14E) [6]: robust anticonvulsant activity
exposure over the evaluated dose range ([7]; healthy adults, oral, single 2.5-150 mg, multiple 30-120 mg QD): increased dose proportionally
increase in AUC, fed vs fasted state ([7]; single 90-mg dose): 14%
increase in Cmax, fed vs fasted state ([7]; single 90-mg dose): 9%
reduction from baseline in ASSR phase-locking factor (PLF) ([8]; 90 mg QD): approximately 30%
reduction from baseline in ASSR phase-locking factor (PLF) ([8]; 120 mg QD): ~60%
qEEG Delta (1.5-6 Hz) and Theta (6-8.5 Hz) band spectral power ([8]; 120 mg single dose and 120 mg QD): Increases from baseline
ASSR-based absolute evoked gamma power vs placebo ([8]; any Compound 1 dose level): No statistically significant differences
TEAEs that were mild ([9]; healthy participants): > 92%
safety findings in vital signs, clinical laboratory results, physical exams, ECGs, C-SSRS ([9]; healthy participants): no clinically significant safety findings
participants experiencing typical NaV blocker events ([9]; more frequent at 120 mg and 150 mg): 34%
tolerability in healthy participants ([9]; single doses up to 150 mg, up to 120 mg QD 14 days, 90 mg fed and fasted): well-tolerated; also recorded: well tolerated
tolerability in healthy adults ([10]; 90 mg, Part A): well tolerated
TEAEs mild in severity ([10]; Part A): 71%
TEAEs moderate ([10]; Part A): 29%
TEAEs severe ([10]; Part A): 0%
number of TEAEs ([10]; Part A): 35
participants with TEAEs ([10]; Part A (n=30 enrolled)): 13
TEAEs mild or moderate ([10]; Part A, 90 mg QD vs placebo): 100%
review of ALT/AST increases and rhabdomyolysis, causal association ([10]; Part B): did not identify a causal association
TEAEs mild or moderate ([10]; Part B, OXC + 120 mg Compound 1 vs OXC alone): 96%
TEAEs mild in severity ([10]; Part B, both arms): 51%
TEAEs moderate ([10]; Part B, both arms): 45%
TEAEs severe ([10]; Part B, both arms): 4%
number of TEAEs ([10]; Part B, both arms): 74
participants with TEAEs ([10]; Part B, both arms (n=18 enrolled)): 16
safety findings in vital signs, physical exams, ECGs, C-SSRS ([10]; Parts A and B): no clinically significant safety findings
time predicted to achieve 90% steady state [11]: about 6 weeks
effect on locomotor function ([12]; 10 mg/kg): no effect on locomotor function
total traveling distance in 30-minute sLMA test ([12]; 20 and 40 mg/kg p.o.): significantly reduced; also recorded: reductions in the distance moved
sLMA distance moved, dose-response ([12]; Compound 1 10-40 mg/kg po): dose-dependent reductions in distance moved
sLMA TC50 in brain (total) ([12]; brain): 1899 ng/g
sLMA TC50 in brain (free) ([12]; brain, free): 69.7 nM
Tolerability (sLMA) TD50 ([12]; dose reducing sLMA by 50%): 44 mg/kg
Tolerability (sLMA) TC50 (free brain) ([12]; free brain concentration): 69.7 nM
sLMA TC50 in plasma (total) ([12]; plasma): 1.553 µg/mL
PI (Plasma) ([12]; plasma TC50 (sLMA) / plasma EC50 (MES), free concentrations): 17.3
sLMA TC50 in plasma (free) ([12]; plasma, free): 308.9 nM
IC50 [13]: 109 to 180 nM

— patent publication US12582652B2, “3-(ethoxydifluoromethyl)-6-(5-fluoro-6-(2,2,2-trifluoroethoxy)pyridin-3-yl)-[1,2,4]triazolo[4,3-a]pyrazine as an ion channel modulator” (Praxis Precision Medicines, Inc., priority 2022, dated 2026)
